Where a name gives a salt, the structure may show the parent alone.
Assay: Bloodwork: complete blood count, electrolytes, extended blood chemistry
Format: in vivo, sheep
Method: Indirect blood pressure, pulse recording, pain testing (mechanical stimulus device, cold and warm water baths see description in procedure) and weight were taken on days 1, 3, 7, 15, 22, 29, 36, and 43. Venous blood samples (15 ml drawn from the jugular vein with Vacutainer brand blood collection tubes) for complete blood count, electrolytes, and extended blood chemistry were drawn on days 1, 15, and 43 (mild procedure only light hand restraint necessary).

[1] = sheep #84 Roadrunner, 15 mg/day, Day 1
[2] = sheep #84 Roadrunner, 15 mg/day, Day 15
[3] = sheep #84 Roadrunner, 15 mg/day, Day 43

SMILES: Cc1ncc2n1-c1ccc(Cl)cc1C(c1ccccc1F)=NC2 [Midazolam, midazolam hydrochloride]
- Total Bili [1]: 0.3 mg/dL
- Total Prot [1]: 5.9 g/dL
- WBC [1]: 5390 µL⁻¹
- ALT [2]: 2 U/L
- AST [2]: 60 U/L
- Albumin [2]: 3.7 g/dL
- Alk Phos [2]: 98 U/L
- BUN [2]: 11 mg/dL
- CPK [2]: 53 U/L
- Cholesterol [2]: 56 mg/dL
- Creatinine [2]: 1.3 mg/dL
- Differential Count: Eosin [2]: 12%
- Differential Count: Lymph [2]: 44%
- Differential Count: Seg [2]: 44%
- Gamma GT [2]: 62 U/L
- Glucose [2]: 66 mg/dL
- Hct [2]: 31.8%
- Hgb [2]: 10.8 g/dL
- K+ [2]: 4.8 mEq/l
- MCH [2]: 10.8 pg
- MCHC [2]: 34.0 g/dL
- MCV [2]: 31.8 fL
- Na+ [2]: 150 mEq/l
- Phos [2]: 6.6 mg/dL
- Platlet Count [2]: 848000 µL⁻¹
- RBC [2]: 1e+07 µL⁻¹
- Total Bili [2]: 0.1 mg/dL
- Total Prot [2]: 6.4 g/dL
- WBC [2]: 5130 µL⁻¹
- ALT [3]: 7 U/L
- AST [3]: 65 U/L
- Albumin [3]: 3.54 g/dL
- Alk Phos [3]: 143 U/L
- BUN [3]: 11 mg/dL
- CPK [3]: 102 U/L
- Cholesterol [3]: 57 mg/dL
- Creatinine [3]: 1.2 mg/dL
- Differential Count: Atyp lym [3]: 1%
- Differential Count: Eosin [3]: 2%
- Differential Count: Lymph [3]: 67%
- Differential Count: Mono [3]: 1%
- Differential Count: Seg [3]: 29%
- Gamma GT [3]: 56 U/L
- Glucose [3]: 74 mg/dL
- Hct [3]: 35.0%
- Hgb [3]: 11.9 g/dL
- K+ [3]: 4.6 mEq/l
- MCH [3]: 11.8 pg
- MCHC [3]: 34.0 g/dL
- MCV [3]: 34.7 fL
- Na+ [3]: 149 mEq/l
- Phos [3]: 7.1 mg/dL
- Platlet Count [3]: 727000 µL⁻¹
- RBC [3]: 1.01e+07 µL⁻¹
- Total Bili [3]: 0.1 mg/dL
- Total Prot [3]: 6.0 g/dL
- WBC [3]: 5150 µL⁻¹
- ALT (sheep #85, 15 mg/day, Day 1): 7 U/L
- AST (sheep #85, 15 mg/day, Day 1): 76 U/L
- Alk Phos (sheep #85, 15 mg/day, Day 1): 50 U/L
- BUN (sheep #85, 15 mg/day, Day 1): 10 mg/dL
- CPK (sheep #85, 15 mg/day, Day 1): 99 U/L
- Cholesterol (sheep #85, 15 mg/day, Day 1): 52 mg/dL
- Differential Count: Baso (sheep #85, 15 mg/day, Day 1): 1%
- Differential Count: Eosin (sheep #85, 15 mg/day, Day 1): 1%
- Differential Count: Lymph (sheep #85, 15 mg/day, Day 1): 22%
- Differential Count: Mono (sheep #85, 15 mg/day, Day 1): 1%
- Differential Count: Seg (sheep #85, 15 mg/day, Day 1): 75%
- Gamma GT (sheep #85, 15 mg/day, Day 1): 68 U/L
- Glucose (sheep #85, 15 mg/day, Day 1): 75 mg/dL
- Hct (sheep #85, 15 mg/day, Day 1): 28.0%
- Hgb (sheep #85, 15 mg/day, Day 1): 9.2 g/dL
- MCH (sheep #85, 15 mg/day, Day 1): 10.7 pg
- MCHC (sheep #85, 15 mg/day, Day 1): 32.8 g/dL
- MCV (sheep #85, 15 mg/day, Day 1): 32.7 fL
- Na+ (sheep #85, 15 mg/day, Day 1): 149 mEq/l
- Platlet Count (sheep #85, 15 mg/day, Day 1): 994000 µL⁻¹
- RBC (sheep #85, 15 mg/day, Day 1): 8.57e+06 µL⁻¹
- WBC (sheep #85, 15 mg/day, Day 1): 4780 µL⁻¹
- Total Bili (sheep #85, 15 mg/day, Day 1, ref 0.14-0.32): 0.1 mg/dL
- Creatinine (sheep #85, 15 mg/day, Day 1, ref 1-2.7): 1.4 mg/dL
- Albumin (sheep #85, 15 mg/day, Day 1, ref 2.4-3): 3.4 g/dL
- K+ (sheep #85, 15 mg/day, Day 1, ref 3.9-5.4): 4.7 mEq/l
- Phos (sheep #85, 15 mg/day, Day 1, ref 5-7.3): 5.3 mg/dL
- Total Prot (sheep #85, 15 mg/day, Day 1, ref 6-7.9): 6.1 g/dL
- ALT (sheep #85, 15 mg/day, Day 15): 10 U/L
- AST (sheep #85, 15 mg/day, Day 15): 56 U/L
- Alk Phos (sheep #85, 15 mg/day, Day 15): 54 U/L
- BUN (sheep #85, 15 mg/day, Day 15): 17 mg/dL
- CPK (sheep #85, 15 mg/day, Day 15): 56 U/L
- Cholesterol (sheep #85, 15 mg/day, Day 15): 58 mg/dL
- Differential Count: Eosin (sheep #85, 15 mg/day, Day 15): 12%
- Differential Count: Lymph (sheep #85, 15 mg/day, Day 15): 44%
- Differential Count: Seg (sheep #85, 15 mg/day, Day 15): 44%
- Gamma GT (sheep #85, 15 mg/day, Day 15): 54 U/L
- Hct (sheep #85, 15 mg/day, Day 15): 31.8%
- Hgb (sheep #85, 15 mg/day, Day 15): 10.8 g/dL
- MCH (sheep #85, 15 mg/day, Day 15): 10.8 pg
- MCHC (sheep #85, 15 mg/day, Day 15): 34.0 g/dL
- MCV (sheep #85, 15 mg/day, Day 15): 31.8 fL
- Na+ (sheep #85, 15 mg/day, Day 15): 148 mEq/l
- Platlet Count (sheep #85, 15 mg/day, Day 15): 848000 µL⁻¹
- RBC (sheep #85, 15 mg/day, Day 15): 1e+07 µL⁻¹
- WBC (sheep #85, 15 mg/day, Day 15): 5130 µL⁻¹
- Total Bili (sheep #85, 15 mg/day, Day 15, ref 0.14-0.32): 0.0 mg/dL
- Creatinine (sheep #85, 15 mg/day, Day 15, ref 1-2.7): 1.2 mg/dL
- Albumin (sheep #85, 15 mg/day, Day 15, ref 2.4-3): 2.8 g/dL
- K+ (sheep #85, 15 mg/day, Day 15, ref 3.9-5.4): 5.0 mEq/l
- Phos (sheep #85, 15 mg/day, Day 15, ref 5-7.3): 6.0 mg/dL
- Total Prot (sheep #85, 15 mg/day, Day 15, ref 6-7.9): 5.4 g/dL
- ALT (sheep #85, 15 mg/day, Day 43): 8 U/L
- AST (sheep #85, 15 mg/day, Day 43): 59 U/L
- Alk Phos (sheep #85, 15 mg/day, Day 43): 92 U/L
- BUN (sheep #85, 15 mg/day, Day 43): 13 mg/dL
- CPK (sheep #85, 15 mg/day, Day 43): 81 U/L
- Cholesterol (sheep #85, 15 mg/day, Day 43): 72 mg/dL
- Differential Count: Eosin (sheep #85, 15 mg/day, Day 43): 4%
- Differential Count: Lymph (sheep #85, 15 mg/day, Day 43): 75%
- Differential Count: Mono (sheep #85, 15 mg/day, Day 43): 3%
- Differential Count: Seg (sheep #85, 15 mg/day, Day 43): 18%
- Gamma GT (sheep #85, 15 mg/day, Day 43): 60 U/L
- Glucose (sheep #85, 15 mg/day, Day 43): 76 mg/dL
- Hct (sheep #85, 15 mg/day, Day 43): 34.7%
- Hgb (sheep #85, 15 mg/day, Day 43): 11.9 g/dL
- MCH (sheep #85, 15 mg/day, Day 43): 12.6 pg
- MCHC (sheep #85, 15 mg/day, Day 43): 34.1 g/dL
- MCV (sheep #85, 15 mg/day, Day 43): 36.8 fL
- Na+ (sheep #85, 15 mg/day, Day 43): 148 mEq/l
- Platlet Count (sheep #85, 15 mg/day, Day 43): 604000 µL⁻¹
- RBC (sheep #85, 15 mg/day, Day 43): 9.44e+06 µL⁻¹
- WBC (sheep #85, 15 mg/day, Day 43): 3130 µL⁻¹
- Total Bili (sheep #85, 15 mg/day, Day 43, ref 0.14-0.32): 0.1 mg/dL
- Creatinine (sheep #85, 15 mg/day, Day 43, ref 1-2.7): 1.3 mg/dL
- Albumin (sheep #85, 15 mg/day, Day 43, ref 2.4-3): 3.6 g/dL
- K+ (sheep #85, 15 mg/day, Day 43, ref 3.9-5.4): 4.9 mEq/l
- Phos (sheep #85, 15 mg/day, Day 43, ref 5-7.3): 7.1 mg/dL
- Total Prot (sheep #85, 15 mg/day, Day 43, ref 6-7.9): 6.4 g/dL
- ALT (sheep #91, 15 mg/day, Day 1): 7 U/L
- AST (sheep #91, 15 mg/day, Day 1): 61 U/L
- Alk Phos (sheep #91, 15 mg/day, Day 1): 132 U/L
- BUN (sheep #91, 15 mg/day, Day 1): 9 mg/dL
- CPK (sheep #91, 15 mg/day, Day 1): 52 U/L
- Cholesterol (sheep #91, 15 mg/day, Day 1): 47 mg/dL
- Differential Count: Eosin (sheep #91, 15 mg/day, Day 1): 1%
- Differential Count: Lymph (sheep #91, 15 mg/day, Day 1): 21%
- Differential Count: Mono (sheep #91, 15 mg/day, Day 1): 2%
- Differential Count: Seg (sheep #91, 15 mg/day, Day 1): 76%
- Gamma GT (sheep #91, 15 mg/day, Day 1): 51 U/L

From patent US20040006070A1, “Intraspinal continuous infusion of midazolam hydrochloride for the treatment of pain” (priority 2002, published 2004)
